Experimental findings from ChEMBL document CHEMBL1201862, “PubChem BioAssay data set” (2004) are described below.

What all share (assay): NCI anticancer screen, dose series, 48 h
Assay [1] deals with EKVX.
In assay [2] the test system is SK-MEL-28.
The test system of assay [3] is BT-549.
Assay [4] deals with RPMI-8226.
The subject of assay [5] is HCC 2998.
Assay [6] relates to HCT-116.
In assay [7] the test system is UO-31.
In assay [8] the test system is M14.
Assay [9] has as its system Hs-578T.
Assay [10] has as its system HL-60.
Assay [11] has as its system UACC-257.
In assay [12] the test system is SK-MEL-2.
Assay [13] deals with ACHN.
The subject of assay [14] is SF-268.
Assay [15] deals with HT-29.
For assay [16], the system named is SW-620.
The subject of assay [17] is NCI-H226.
Assay [18] deals with SK-MEL-5.
Assay [19] relates to IGROV-1.
In assay [20] the test system is MDA-MB-435.

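All cell lines were grown in 96-well plates and treated with compound for 48 hours. GI50 is the concentration that inhibits growth by half.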 Activity calls are given as the source filed them. Rule as the data show it: active = GI50 up to about 1.1 µM and inactive = higher.

With `CN(C)CCCn1c2c3ccccc3ccc2c2oc(=O)c3ccccc3c21`, the GI50 in [1] is 12.7 µM (inactive); in assay [2], 7.46 µM (inactive); in assay [3], > 40.6 µM (inactive); in assay [4], 4.63 µM (inactive); in assay [5] it was 1.22 µM (inactive); in assay [6], 2.48 µM (inactive). For the same compound, the GI50 in [7] is 3.44 µM (inactive); in assay [8] it was 6.03 µM (inactive); in [9], > 36.6 µM (inactive); in [10] it was 2.28 µM (inactive); in assay [11], 8.65 µM (inactive); in assay [12], 9.23 µM (inactive). In addition, the GI50 in assay [13] was 6.79 µM (inactive); in assay [14], 5.41 µM (inactive); in assay [15], 5.53 µM (inactive); in [16] it was 2 µM (inactive); in assay [17], > 35.2 µM (inactive); in assay [18] it was 9.53 µM (inactive). Further, the GI50 in [19] was 7.93 µM (inactive).
For the compound `Cc1cc(C)cc(Nc2nnc3n2S(=O)(=O)c2cc(C#N)c(Cl)cc2S3)c1`, the GI50 is 8.67 µM (inactive) in assay [1]; 3.21 µM (inactive) in assay [2]; 2.16 µM (inactive) in assay [3]; 3.03 µM (inactive) in assay [20]; 2.17 µM (inactive) in assay [6]; 4.86 µM (inactive) in assay [7]. Further, the GI50 in assay [8] is 5.57 µM (inactive); in assay [9] it was 2.68 µM (inactive); in assay [10], 1.68 µM (inactive); in [11], 1.44 µM (inactive); in assay [12], 7.53 µM (inactive); in [13], 3.08 µM (inactive). The GI50 in assay [14] was 2.2 µM (inactive); in [15], 1.83 µM (inactive); in assay [16], 2.39 µM (inactive); in assay [17], 10.6 µM (inactive); in assay [18], 7.55 µM (inactive); in [19] it was 0.505 µM (active).
Consider `CSc1cc(Br)ccc1-n1c(C(=O)c2ccccc2)c(SC)n(-c2ccccc2)c1=O`, for which the GI50 in assay [1] is > 100 µM (inactive); in assay [2] it was > 100 µM (inactive); in assay [3], > 100 µM (inactive); in [20] it was 7.59 µM (inactive); in assay [5], 86.9 µM (inactive); in assay [6], 49.3 µM (inactive). Moreover, the GI50 in assay [7] was 67 µM (inactive); in assay [8] it was 96.2 µM (inactive); in assay [9] it was > 100 µM (inactive); in assay [11], > 100 µM (inactive); in assay [13] it was > 100 µM (inactive); in assay [14] it was > 100 µM (inactive). Further, the GI50 in assay [15] was 52.8 µM (inactive); in assay [16] it was 19 µM (inactive); in assay [17], > 100 µM (inactive); in assay [18] it was 67.8 µM (inactive); in assay [19], > 100 µM (inactive).
`O=C1c2cccc(NCCNCCO)c2C(=O)c2cccc(NCCNCCO)c21`: the GI50 in [1] was 1.78 µM (inactive); in [2], 1.71 µM (inactive); in assay [3], 2.96 µM (inactive); in assay [20], 1.25 µM (inactive); in [4], 1.2 µM (inactive); in assay [5], 0.802 µM (active). Also, the GI50 is 0.43 µM (active) in assay [6]; 4.72 µM (inactive) in [7]; 1.81 µM (inactive) in [8]; 1.6 µM (inactive) in [10]; 3.04 µM (inactive) in assay [11]; 1.28 µM (inactive) in assay [12]. In addition, the GI50 in [13] was 2.55 µM (inactive); in assay [14] it was 0.518 µM (active); in assay [15], 0.52 µM (active); in [16], 0.714 µM (active); in assay [17] it was 0.998 µM (active); in assay [18], 1.69 µM (inactive). In addition, the GI50 in assay [19] was 1.56 µM (inactive).
On to `COC(=O)CCCc1nc2ccccc2nc1/N=N/c1ccccc1`, for which the GI50 in assay [1] was 73.6 µM (inactive); in assay [2], 38.5 µM (inactive); in assay [3], 53.7 µM (inactive); in [20], 58.7 µM (inactive); in assay [4], 22.9 µM (inactive); in assay [5], > 100 µM (inactive). Moreover, the GI50 in [6] is 30.3 µM (inactive); in assay [7], 25.9 µM (inactive); in [8], 27.6 µM (inactive); in [10] it was 2.57 µM (inactive); in assay [11] it was 45.9 µM (inactive); in assay [12] it was > 100 µM (inactive). For the same compound, the GI50 is 74 µM (inactive) in assay [13]; 51.2 µM (inactive) in assay [14]; 32.1 µM (inactive) in [15]; 47.5 µM (inactive) in assay [16]; 43 µM (inactive) in [17]; 61.1 µM (inactive) in assay [18]. In [19], the GI50 was 25.5 µM (inactive).
Consider `S=C1NC(c2ccccc2)NC(c2ccccc2)S1` (stereo unspecified), for which the GI50 in [1], in [2], in [3], in assay [20], in assay [4] and in [6] was > 100 µM (inactive) throughout. Further, the GI50 in [7] was > 100 µM (inactive); in assay [8], > 100 µM (inactive); in [9] it was > 100 µM (inactive); in assay [10], > 100 µM (inactive); in assay [11], 34.6 µM (inactive); in [12], > 100 µM (inactive). Also, the GI50 in assay [13] was > 100 µM (inactive); in assay [14], > 100 µM (inactive); in assay [15] it was 14.1 µM (inactive); in [16] it was > 100 µM (inactive); in [17], > 100 µM (inactive); in assay [18] it was > 100 µM (inactive). Moreover, in [19], the GI50 is > 100 µM (inactive).
With `COC(=O)C1=C(C)NC(C)=C(C(=O)OC)C1c1cccc(N=O)c1`, the GI50 in assay [1] was 20.1 µM (inactive); in [2], 16.7 µM (inactive); in assay [3], 17 µM (inactive); in assay [20] it was 16.1 µM (inactive); in assay [4] it was 4.53 µM (inactive); in [5], 22.3 µM (inactive). Besides, the GI50 in assay [6] was 11 µM (inactive); in assay [7] it was 8.38 µM (inactive); in [8], 13.9 µM (inactive); in assay [10] it was 3.85 µM (inactive); in assay [11] it was 16.6 µM (inactive); in assay [12], 15.6 µM (inactive). Besides, the GI50 in [13] was 14.5 µM (inactive); in [14], 17 µM (inactive); in assay [15], 16.3 µM (inactive); in [16], 4.78 µM (inactive); in [17] it was 16.3 µM (inactive); in [18], 16.3 µM (inactive). For the same compound, the GI50 in assay [19] is 17 µM (inactive).
For `OC1C=C2C3CN(Cc4cc5c(cc43)OCO5)[C@H]2C[C@@H]1O` (stereo partly specified), the GI50 in [1] was 4.36 µM (inactive); in [2], 11.5 µM (inactive); in assay [3], 2.13 µM (inactive); in assay [20], 3.94 µM (inactive); in [4] it was 6.93 µM (inactive); in [6], 3.3 µM (inactive). Besides, the GI50 in assay [7] is 6.3 µM (inactive); in assay [8], 4.22 µM (inactive); in [9], 26.3 µM (inactive); in assay [10], 2.61 µM (inactive); in assay [11], 2.07 µM (inactive); in assay [12] it was 3.2 µM (inactive). Also, the GI50 is 2.65 µM (inactive) in assay [13]; 7.28 µM (inactive) in assay [14]; 3.69 µM (inactive) in assay [15]; 5.57 µM (inactive) in assay [16]; > 100 µM (inactive) in assay [17]; 3.32 µM (inactive) in [18]. In addition, the GI50 in assay [19] was 4.02 µM (inactive).
In the case of `Cn1c2c(c3ccccc31)CCN1C(=O)C34CCCC3CC21S4` (stereo unspecified), the GI50 in [1], in assay [2], in assay [3], in [20], in assay [4] and in assay [6] was > 100 µM (inactive) in each case. Moreover, the GI50 in assay [7], in assay [8], in assay [9], in assay [10], in [11] and in assay [12] was > 100 µM (inactive) throughout. Further, the GI50 in [13] is > 100 µM (inactive); in assay [14], > 100 µM (inactive); in assay [15] it was > 100 µM (inactive); in assay [16], > 100 µM (inactive); in assay [17], > 100 µM (inactive); in assay [18] it was 76.2 µM (inactive). Further, in [19], the GI50 is > 100 µM (inactive).
With `COc1cc(C2S/C(=C/c3ccccc3)C(=O)N2c2cc(Cl)ccc2Cl)cc(OC)c1OC` (stereo unspecified), the GI50 in [1] was 24.2 µM (inactive); in assay [2] it was 64.9 µM (inactive); in [3], 39.5 µM (inactive); in assay [20], 34.1 µM (inactive); in assay [4], 36.2 µM (inactive); in assay [5], > 100 µM (inactive). Also, the GI50 in [6] is 12.5 µM (inactive); in assay [7], 55.7 µM (inactive); in assay [8] it was 19.6 µM (inactive); in assay [10], 31 µM (inactive); in [11], > 100 µM (inactive); in assay [12], 38.8 µM (inactive). The GI50 in [13] was 35.8 µM (inactive); in assay [14], 21.6 µM (inactive); in assay [15], 47.1 µM (inactive); in [16], 36 µM (inactive); in [17], 40.4 µM (inactive); in assay [18], 35.8 µM (inactive). In addition, the GI50 in assay [19] was 18.9 µM (inactive).
Regarding `CC1=C(C#N)C23C(=O)c4ccccc4C(=O)C2=C(O)C=CC3(O)N1` (stereo unspecified), the GI50 is 5.82 µM (inactive) in assay [1]; 2.51 µM (inactive) in [2]; 1.13 µM (inactive) in assay [3]; 2.81 µM (inactive) in [20]; 0.658 µM (active) in assay [4]; 4.02 µM (inactive) in assay [5]. Further, the GI50 in assay [6] is 5.68 µM (inactive); in [7], 2.37 µM (inactive); in assay [8], 2.19 µM (inactive); in assay [10] it was 0.313 µM (active); in [11], 2.07 µM (inactive); in assay [12] it was 4.4 µM (inactive). For the same compound, the GI50 in [13] is 1.53 µM (inactive); in [14], 6.61 µM (inactive); in assay [15] it was 1.23 µM (inactive); in assay [16], 0.553 µM (active); in assay [17], 15.7 µM (inactive); in assay [18] it was 1.06 µM (active). In assay [19], the GI50 was 2.38 µM (inactive).
